Each structure is given as a SMILES string.

Series [1] can be described thus: Dissociation constant, pKa of the compound. Type of series: physicochemical.
Series [2] is described as follows: Elimination half life in iv dosed rat plasma. Type of series: ADME, organism-based. To be noted: read-out: beta t1/2 (converted).
The nature of series [3]: Elimination half life in iv dosed dog plasma. The format is ADME, organism-based, Canis lupus familiaris. To be noted: read-out: beta t1/2 (converted).
A short description of series [4]: Half life in dog plasma at 5 mg/kg. The format is ADME, organism-based, Canis lupus familiaris. More on the design: dose 5 mg/kg.
Series [5] is described as follows: Half life in rat plasma at 5 mg/kg. The format is ADME, organism-based. Set-up: dose 5 mg/kg.
Series [6] in a line: Half life in human plasma at 5 mg/kg. The format is ADME, organism-based. More on the design: dose 5 mg/kg.

Consider `Nc1ccc(OS(=O)(=O)O)cc1Cl`, for which, in series [1], the pKa was determined as 2.4.
As to `CCOC(=O)C1=CCCC[C@H]1S(=O)(=O)N[14c]1[14cH][14cH][14c](F)[14cH][14c]1Cl`, the half-life in series [2] was 5.6 h; in series [3] it was 158 h.
As to `O=C(O)COc1ccc(Cl)cc1Cl` [2,4-DICHLOROPHENOXYACETIC ACID], the half-life in series [4] is 92 h; in series [5], below 1 h; in series [6] it was 12 h.
Taken in the same sequence, the figures for `Cc1cc(Cl)ccc1OCC(=O)O` [METAXON] were 63 h, 6 h and 11 h.

The term pKa denotes the negative logarithm of the acid dissociation constant.

The values above are taken from ChEMBL document CHEMBL3526115, “Differences in the pharmacokinetics of 4-amino-3-chlorophenyl hydrogen sulfate, a metabolite of resatorvid, in rats and dogs” (Drug Metab Dispos, 2012).
